Data reported in US11357748B2, “Methods for treating mendelian disorders of the epigenetic machinery” (THE JOHNS HOPKINS UNIVERSITY, priority 2014, dated 2022).
“Also recorded” adds a separate entry of the source.

Experiments:
[1] = system: genome-wide H3K4me3 in spleen cells; experiment: ChIP-seq of H3K4me3 in spleen cells of treated mice; format: in vivo, mouse; details: 10 mg/kg/day; vs Kmt2d+/+ littermates on vehicle; FIG. 25E, 27B
Procedure: Spleens were dissected from eight mice, four from each kmt2d genotype (+/βGeo or +/+) where half of each genotype was treated with AR-42 and half with vehicle only. Spleens were minced and passed through a 40 µm cell strainer to obtain single cell suspensions. 10 million cells were used for each ChIP-seq experiment following the native chromatin immunoprecipitation protocol, as previously described (Gilfillan et al. (2012) BMC Genomics 13:645), using a ChIP-grade antibody against H3K4me3 (9727, Cell Signaling Technology, Beverly, Mass.).
Sequencing was performed using a MiSeq system (Illumina, San Diego, Calif.). 4.8-9.6 million paired-end 26 bp reads were obtained per sample (Table 2; nReads=number of reads, alignRate=fraction aligned to genome; FRIP=fraction of reads in peaks). Reads were aligned to the m. musculus genome, version mm 10, using Bowtie 2 (Langmead and Salzberg (2012) Nat. Methods. 9: 357-9). Each sample was examined with regard to alignment rate as well as FRIP (fraction of reads in peaks), a measure of the ChIP efficiency (Table 2). […] For analysis, reads were merged into one meta-sample and peak calling was performed using MACS version 1.4.2 (Zhang et al. (2008) Genome Biol. 9: R137). […] This created a peak by sample matrix of read counts. […] Fold change and overall abundance was calculated as per edgeR. […]

[2] = system: H3K4 trimethylation and histone acetylation; details: Huang et al. (2011); cited from earlier work

In the case of `CC(C)[C@H](C(=O)Nc1ccc(C(=O)NO)cc1)c1ccccc1` [AR-42, (S)—N-hydroxy-4-(3-methyl-2-phenylbutanamido)benzamide], the “genome-wide H3K4me3 in spleen cells of Kmt2d+/βGeo mice” value [1] is listed as “genome-wide increase in H3K4me3; also recorded: overcorrection of genome-wide H3K4me3; also recorded: improved” and the “relative effect on H3K4me3 among HDACi” value [2] is listed as “strongest effect on H3K4me3”.
